# In PMC4791264, “Characterization and bioactivity of novel calcium antagonists - N-methoxy-benzyl haloperidol quaternary ammonium salt” (Oncotarget, 2015):
# Where two headings read alike, the source gives them in different places.
# How the values were obtained:
# SD rats [1] = assay: Effect on rat hemodynamics (left ventricular pressure, heart rate); conditions: anesthetized SD rats, 3 min after administration
# [2] = tested on: isolated rat thoracic aortic rings; assay: Vasodilation on KCl (60 mM)-contracted isolated rat thoracic aortic rings; conditions: KCl (60 mM)-induced contraction of rat aortic rings; 0.1 to 10 μM
# Protocol: The vasodilation activity of compounds was evaluated in isolated rat thoracic aortic rings according to the methods of Greenwood and Polster et al. The aortic rings were allowed to equilibrate in Krebs bicarbonate solution ((PSS), containing118.0 mM NaCl, 4.7 mM KCl, 1.2 mM KH2PO4, 1.2 mM MgSO4.7H2O, 5.0 mM glucose, 25.0 mM NaHCO3, and 2.5 mM CaCl2.7H2O at 37°C and were gassed with 95% O2 and 5% CO2 for 90 min at a testing tension. KCl (60 mM) was used to depolarize the aortic rings. When the amplitude of the contraction reached a plateau, compounds X1, X2, X3 were added. Cumulative concentration-response curves to all compounds were determined in the absence and presence of endothelium. Using tips of forceps, the endothelium was mechanically removed from some rings by gently rubbing the lumen, if absence of endothelium is needed. Acetylcholine was used to confirm the removal of endothelium from the aortic rings.
# SD rats [3] = conditions: rat, in vivo
# [4] = molecular target: T1, L-type calcium channels in rat ventricular myocytes (Rattus norvegicus, UniProt P0DP29+P22002); assay: Inhibition of L-type calcium current (patch-clamp); type: cell-based; conditions: 0.1 to 10 μM, rat myocardiocytes
# T1 construct: reduced the amplitude of the L-type calcium current in rat myocardiocytes; endogenous in cells; host or cells: rat ventricular myocytes (single cells)
# rat myocardiocytes = assay: Inhibition of KCl-induced extracellular calcium influx (Fluo-3 fluorescence, confocal microscopy); type: cell-based; conditions: 60 mM KCl; for reduction of Ca^2+ fluorescent intensity, maximum degree: 0.1–10 μM
# Protocol: Fluorescence intensity of Ca^2+ in myocardial cell was determined by laser scanning confocal microscopy (ACAS/ULTIMA312, Meridian Instruments) as previously described. Rat myocardiocytes were grown on 24-mm glass coverslips in 6-well plates in DMEM containing 10% FBS. After 24 h, the cells were incubated with Fluo 3-AM (20 μM) for 60 min in the dark at 37°C. Then, the cells were washed with HBSS three times to remove extracellular Fluo 3-AM. HBSS (HEPES-buffered physiological saline solution) contains 130 mM NaCl, 2.5 mM KCl, 1.2 mM MgCl2, 10 mM HEPES, 10 mM glucose, and 2 mM CaCl2, pH 7.4 (adjusted with NaOH). […] KCl was added into the cultured cells to induce the influx of extracellular Ca^2+ in HBSS and changes in fluorescence were recorded. Myocardiocytes were incubated for 30 min with 0.1, 1, and 10 μM compounds before adding KCl. Effect of compounds on KCl-induced changes in fluorescence was investigated.
# H9c2 cell = assay: LDH in culture medium under hypoxia/reoxygenation, H9c2 cells; type: cell-based; conditions: 1 × 10^−6 mol/L, vs H/R group (p < 0.01)
# Protocol: (§1) Myocardiocytes H9c2 cell and the one which the L-type calcium channel gene was knock-out, the […]-/-) were incubated separately in culture plates. When cell confluence reached 85%, the cells were incubated for another 12 hours in DMEM medium with 0.5% FBS. Then cells were randomly divided into 6 groups, namely the control group, H/R group, DMSO group, H/R+X1(1 × 10^-6 mol/L) group, H/R+X2 (1 × 10^-6 mol/L) group and H/R+X3 (1 × 10^-6 mol/L) group. The hypoxic DMEM culture medium and reoxygenation medium were used in H/R process. The final volume was 500 uL. The compounds (X1, X2, X3) were administered continuously during the hypoxia/reoxygenation process. Finally, cell supernatant was collected and LDH was measured by colorimetric method according to the Kit instruction by manufacturer (Nanjin Jiancheng Lit. China).
# H9c2 cell (Cacnalc−/−) = assay: LDH in culture medium under hypoxia/reoxygenation, H9c2 (Cacnalc−/−) cells; type: cell-based; conditions: 1 × 10^−6 mol/L
# Protocol: as §1
Structure (SMILES),HR (SD rats [1]; 0.25 mg/kg),LVEDP (SD rats [1]; 0.25 mg/kg),LVSP (SD rats [1]; 0.25 mg/kg),HR (SD rats [1]; 0.5 mg/kg),LVEDP (SD rats [1]; 0.5 mg/kg),LVSP (SD rats [1]; 0.5 mg/kg),HR (SD rats [1]; 1 mg/kg),LVEDP (SD rats [1]; 1 mg/kg),LVSP (SD rats [1]; 1 mg/kg),IC50 [2] [nM],maximum inhibition on the vascular ring contraction [2] [%],+LVdp/dtmax (SD rats [3]; 0.25 mg/kg),−LVdp/dtmax (SD rats [3]; 0.25 mg/kg),+LVdp/dtmax (SD rats [3]; 0.5 mg/kg),−LVdp/dtmax (SD rats [3]; 0.5 mg/kg),+LVdp/dtmax (SD rats [3]; 1 mg/kg),−LVdp/dtmax (SD rats [3]; 1 mg/kg),maximum inhibition rate of L-type calcium current [4] [%],IC50 [4] [nM],"reduction of Ca^2+ fluorescent intensity, maximum degree (rat myocardiocytes) [%]",other results
"COc1ccc([C@@H]2Sc3ccccc3N(CCN(C)C)C(=O)[C@@H]2OC(C)=O)cc1 [Dil, diltiazem]",322 ± 25,30.21 ± 3.99,138.54 ± 21.35,321 ± 29,33.26 ± 4.26,130.25 ± 17.33,304 ± 47,38.51 ± 7.45,127.55 ± 21.23,,,,,,,,,,,,+LVdp/dtmax (SD rats [1]; 0.25 mg/kg): 1099.22 ± 142.66; −LVdp/dtmax (SD rats [1]; 0.25 mg/kg): 787.25 ± 74.25; +LVdp/dtmax (SD rats [1]; 0.5 mg/kg): 922.11 ± 129.44; −LVdp/dtmax (SD rats [1]; 0.5 mg/kg): 689.76 ± 77.62; +LVdp/dtmax (SD rats [1]; 1 mg/kg): 899.08 ± 128.32; −LVdp/dtmax (SD rats [1]; 1 mg/kg): 622.94 ± 84.42
COc1cccc(C[N+]2(CCCC(=O)c3ccc(F)cc3)CCC(O)(c3ccc(Cl)cc3)CC2)c1 (stereo not shown) [Compound X2],365 ± 59,22.12 ± 3.76,145.98 ± 16.42,362 ± 63,22.08 ± 3.44,146.66 ± 18.04,356 ± 53,26.93 ± 3.26,138.94 ± 16.06,4220,67.08,1029.32 ± 144.08,982.13 ± 154.56,1022.14 ± 142.21,984.12 ± 144.32,902.89 ± 138.88,955.23 ± 146.08,82.8,493,53.6,LDH under H/R (H9c2 cell): decreased; LDH under H/R (H9c2 cell (Cacnalc−/−)): remained unchanged
COc1ccc(C[N+]2(CCCC(=O)c3ccc(F)cc3)CCC(O)(c3ccc(Cl)cc3)CC2)cc1 (stereo not shown) [Compound X1],355 ± 61,20.34 ± 3.06,145.32 ± 20.08,356 ± 55,21.02 ± 3.08,145.38 ± 18.06,342 ± 51,29.66 ± 4.33,132.32 ± 18.66,432,92.5,1043.01 ± 143.24,899.04 ± 142.24,1011.02 ± 152.04,908.21 ± 151.02,946.02 ± 132.23,884.82 ± 148.09,97.2,472,76.5,LDH under H/R (H9c2 cell): decreased; LDH under H/R (H9c2 cell (Cacnalc−/−)): remained unchanged
COc1ccccc1C[N+]1(CCCC(=O)c2ccc(F)cc2)CCC(O)(c2ccc(Cl)cc2)CC1 (stereo not shown) [Compound X3],358 ± 52,23.86 ± 3.65,142.94 ± 18.08,362 ± 55,24.91 ± 3.07,148.98 ± 20.02,368 ± 54,23.69 ± 3.77,152.88 ± 21.04,7420,48.66,1129.28 ± 162.26,989.92 ± 161.23,1221.12 ± 170.02,1021.23 ± 153.77,1248.36 ± 182.32,1022.15 ± 162.24,70.2,721,24.53,LDH under H/R (H9c2 cell): decreased; LDH under H/R (H9c2 cell (Cacnalc−/−)): remained unchanged
"COc1ccc(CCN(C)CCCC(C#N)(c2ccc(OC)c(OC)c2)C(C)C)cc1OC (stereo not shown) [Ver, verapamil]",328 ± 28,25.39 ± 7.45,132.24 ± 12.74,302 ± 77,38.21 ± 8.18,112.74 ± 21.08,298 ± 41,42.21 ± 6.23,102.21 ± 14.21,,,,,,,,,,,,"+LVdp/dtmax (SD rats [1]; 0.25 mg/kg): 1022.49 ± 130.44; −LVdp/dtmax (SD rats [1]; 0.25 mg/kg): 932.24 ± 95.54; +LVdp/dtmax (SD rats [1]; 0.5 mg/kg): 925.38 ± 172.37; −LVdp/dtmax (SD rats [1]; 0.5 mg/kg): 699.87 ± 91.11; +LVdp/dtmax (SD rats [1]; 1 mg/kg): 885.32 ± 122.21; −LVdp/dtmax (SD rats [1]; 1 mg/kg): 657.80 ± 85.55; reduction of Ca^2+ fluorescence intensities (rat myocardiocytes; 10 μM, positive control): 86%"
"COC(=O)C1=C(C)NC(C)=C(C(=O)OC)C1c1ccccc1[N+](=O)[O-] [Nif, nifedipine]",372 ± 29,29.33 ± 5.56,137.21 ± 18.26,397 ± 73,33.64 ± 8.12,132.11 ± 11.10,311 ± 54,45.50 ± 6.43,105.00 ± 12.23,,,,,,,,,,,,
